# From patent publication US6025330A, “Inhibitors of fibrin cross-linking and/or transglutaminases” (BioPharm Research & Development Ltd., priority 1995, dated 2000)
# No end group written: not given here.
# Legend:
# [1] = target: T1, human plasma factor XIIIa (Homo sapiens, UniProt P00488); assay: production of ammonia from casein on ethylamine incorporation (glutamate dehydrogenase/NADH coupled); type: biochemical; conditions: control 4.14
# T1 construct: from tissue; host or cells: human plasma (defibrinogenated, not purified further)
# T1 sequence (P00488 39-732 limits assumed): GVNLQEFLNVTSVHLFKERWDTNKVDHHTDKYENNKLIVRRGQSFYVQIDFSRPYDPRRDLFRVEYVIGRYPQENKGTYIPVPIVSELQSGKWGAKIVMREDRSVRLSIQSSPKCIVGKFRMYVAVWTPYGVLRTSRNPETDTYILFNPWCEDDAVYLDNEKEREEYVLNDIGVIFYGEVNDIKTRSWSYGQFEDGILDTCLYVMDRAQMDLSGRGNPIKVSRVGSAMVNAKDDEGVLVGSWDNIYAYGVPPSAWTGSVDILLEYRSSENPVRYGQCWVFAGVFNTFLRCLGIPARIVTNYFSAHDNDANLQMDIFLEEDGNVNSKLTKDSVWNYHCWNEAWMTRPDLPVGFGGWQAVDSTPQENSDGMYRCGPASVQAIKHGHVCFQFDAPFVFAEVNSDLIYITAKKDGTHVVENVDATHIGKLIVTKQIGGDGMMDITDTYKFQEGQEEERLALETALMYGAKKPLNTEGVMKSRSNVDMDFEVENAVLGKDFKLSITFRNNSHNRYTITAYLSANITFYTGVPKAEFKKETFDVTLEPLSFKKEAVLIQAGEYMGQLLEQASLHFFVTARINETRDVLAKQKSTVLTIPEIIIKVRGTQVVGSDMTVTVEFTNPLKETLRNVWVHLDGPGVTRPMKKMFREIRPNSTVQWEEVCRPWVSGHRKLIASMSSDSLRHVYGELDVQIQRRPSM
# Experimental: The transglutaminase activity of human plasma factor XIIIa was measured spectrophotometrically by a modification of the method of Muszbek, Polgar and Fesus; "Kinetic determination of blood coagulation factor XIII in plasma." Clin Chem 31 (1985) pp. 35-40. This method measures the production of ammonia by linking it through the glutamate dehydrogenase reaction to NADH oxidation which can be monitored by the change in absorption at 340 nm. Factor XIII was activated by incubating defibrinated human plasma (2 ml) and 200 mM CaCl2 (0.1 ml) with 1000 unit/ml bovine thrombin (0.1 ml) at 37° C. After 15 min the reaction was stopped by the addition of 260 antithrombin units of hirudin. The reaction cuvette contained: 2.5 mM dithiothreitol (0.1 ml), 40 mg/ml dephosphorylated β-casein (0.05 ml), 70 mM ethylamine (0.1 ml), 12 mM sodium 2-ketoglutarate (0.1 ml), 4 mM NADH (0.1 ml), 1.2 mM ADP (0.1 ml), 40 unit/ml glutamate dehydrogenase (0.1 ml), 70 mM HEPES buffer pH7.5 (0.25 ml) and this was placed in a spectrophotometer at 20° C. All components were dissolved in 70 mM HEPES buffer pH 7.5 where possible. The reaction was started by the addition of the activated factor XIII (0.2 ml) and monitored at 340 nm. The assay was validated with the use of factor XIII-deficient plasma (Sigma).
# Test samples were added in 0.1 ml of the HEPES buffer to the reaction cuvette. […]
# [2] = target: human factor Xa (Homo sapiens, UniProt P00742); assay: factor Xa chromogenic substrate assay (S2765); type: biochemical; conditions: 0.046 μg/ml
# Experimental: (§1) The effect of Tridegin variant 1 purified as in Example 6 was tested on the coagulation enzyme, thrombin. with a chromogenic substrate assay. 1 mM S2238 was incubated in 50 mM Tris HCl pH 8.3 and the reaction was started by adding thrombin 0.15 U/ml final concentration. The reaction was monitored in a spectrophotometer at 405 nm.
# The effect of the Tridegin purified as in Example 6 was tested on factor Xa. 2 mM S2765 was incubated in 50 mM Tris HCl pH 8.3 and the reaction was started by adding human factor Xa. The assay was performed as in Example 11. […] This confirms that, not only is the transglutaminase inhibitor different from previously known inhibitors of factor Xa, but the methods exemplified to purify the transglutaminase inhibitor successfully remove the factor Xa inhibitors.
# [3] = test system: thrombin; assay: thrombin chromogenic substrate assay (S2238); type: biochemical; conditions: 0.046 μg/ml
# Experimental: as §1
# [4] = test system: factor XIIIa; assay: clot solubility assay (fibrin clot in urea); type: biochemical, bovine; conditions: iodoacetamide 100 μM, lowered absorbance = clot soluble in urea
# Experimental: In a first experiment A, the proboscis, anterior and posterior salivary glands of a leech of the species Haementeria ghilianii were homogenised together in a Potter homogeniser in 10 mM Tris HCl, 0.85% w/v NaCl pH7.0 (1 ml), and centrifuged at 13000 rpm. The supernatant was assayed in a clot solubility assay similar to that of Tymiak, Tuttle, Kimball, Wang and Lee "A simple and rapid screen for inhibitors of factor XIIIa". J. Antibiotics 46 (1993) pp. 204-206. In a second experiment B, the proboscis, anterior and posterior salivary glands were dissected from a leech of the species Haementeria ghilianii and homogenised separately in 0.2 ml aliquots of the buffer. The effect was compared with extracts of the proboscis, anterior and posterior salivary glands from two leeches of the species Haementeria officinalis prepared in 0.2 ml buffer. The test samples (30 μl) were added to a solution of 10 mg/ml crude bovine fibrinogen which contains factor XIII (30 μl). The reaction was started by adding 6.25 units/ml bovine thrombin containing 9 mM CaCl2 (40 μl). A clot formed in 15 min when 8M urea (160 μl) was added and left in contact with the clot. After 30 min, the absorbance resulting from the clot's opalescence was read at 405 nm. Lowered absorbance indicates solubility of the clot resulting from inhibition of cross-linking. […] The numerical values quoted in the table are absorbance at 405 nm.
# Sequence of human factor Xa (P00742 41-179 limits assumed): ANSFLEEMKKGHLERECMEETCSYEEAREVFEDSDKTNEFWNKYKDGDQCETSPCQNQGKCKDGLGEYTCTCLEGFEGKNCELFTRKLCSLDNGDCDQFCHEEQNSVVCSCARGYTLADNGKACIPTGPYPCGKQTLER
# Sequence of human factor Xa (P00742 235-488 limits assumed): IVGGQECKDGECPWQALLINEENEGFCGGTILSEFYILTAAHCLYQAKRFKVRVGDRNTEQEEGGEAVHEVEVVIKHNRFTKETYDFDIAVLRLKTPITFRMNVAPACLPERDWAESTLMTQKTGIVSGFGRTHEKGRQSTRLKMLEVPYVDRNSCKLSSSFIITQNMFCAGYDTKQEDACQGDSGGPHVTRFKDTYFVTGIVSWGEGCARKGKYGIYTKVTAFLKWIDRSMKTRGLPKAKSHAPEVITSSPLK
molecule,measurement,setting,value
O=C(O)CN(CCOCCOCCN(CC(=O)O)CC(=O)O)CC(=O)O [EGTA],Change in absorbance,[1]; 77 mM in cuvette,0.024 mAbs/min
"rTAP: recombinant tick anticoagulant peptide, a known inhibitor of factor Xa (YNRLCIKPRDWIDECDSNEGGERAYFRNGKGGCDSFWICPEDHTGADYYSSYRDCFNACI; ends and bridges not checked; cysteine pairing not given here; UniProt P17726 1-60, looked up)",inhibition of factor Xa,[2],89.9%
same,Reaction Rate,[2]; control 49.8,5.53 mAbs/min
Hirudin,inhibitory effect on thrombin,[3],95%
same,Rate of Reaction,[3]; control 49.8,2.63 mAbs/min
NC(=O)CI [Iodoacetamide],"absorbance at 405 nm, Experiment A",[4]; Tris buffer 0.74,0.26
same,"absorbance at 405 nm, Experiment B",[4]; Tris buffer 0.83,0.42
same,Change in absorbance,[1]; 0.077 mM in cuvette,0.356 mAbs/min
